Ends that are not written are not given here.
Legend:
[1] = test system: adhesion of Mn++-activated TK-1 cells (α4+ β7+ β1−) to VCAM-1; assay: Cell adhesion assay: Mn2+-activated TK-1 cells to VCAM-1-Fc coated wells; assay type: cell-based, mouse; conditions: for maximal inhibition of adhesion to VCAM-1 / inhibition of cell adhesion to VCAM-1: Mn++-activated TK-1 cells; for inhibition of cell adhesion to VCAM-1: highest concentration tested, 50 μM
Protocol: The soluble VCAM-1-Fc chimera was produced using the glutamine synthetase gene amplification system. The extracellular portions of human VCAM-1 fused to the Fc domain of human IgG1 was expressed from the pEE14 vector (kindly provided by Dr Chris Bebbington, Celltech Ltd, UK) in CHO K1 cells as described previously (27).
(§1) Lab-Tek 16-well glass slides (Nunc) or flat-bottom 96-well plates (Nunc Maxisorp) were coated overnight at 4° C. with purified VCAM-1-Fc at 10 μg/well in 100 μl of 0.1 M carbonate buffer (pH 9.5). After washing plates were blocked with 100% heat-inactivated FCS, and washed with Hanks balanced salt solution (HBSS) containing 10 mM Hepes, 2 mM Ca^2+ and 2 mM Mn^2+. TK-1 cells were either left unlabeled or labeled with the fluorescent dye chloromethyl fluorescein diacetate (CMFDA; Molecular Probes, Oreg.). For peptide inhibition studies, TK-1 cells were preincubated with peptide in serum-free medium for 30 min at 37° C. and activated by suspension in an Mn^2+-containing buffer (HBSS: 10 mM Hepes containing 2 mM Ca^2+, 2 mM Mn^2+, and 2% FCS). Human IgG1 Ab (10 μg/ml; Sigma) was added to prevent nonspecific capture of cells to the Fc portion of […]. Cells were checked for viability by trypan blue exclusion, added to wells (10^6 cells/well), and incubated for 30 min at 37° C. in a humidified atmosphere of 5% CO2. Non-adherent cells were removed by inverse centrifugation of the plates at 70×g for 5 min followed by gentle pipette washing. The number of unlabeled adherent cells was determined by counting the number of adherent cells in four independent fields at 100× magnification under an inverted microscope. The fluorescence of CMFDA-labeled adherent cells was measured using a VICTOR 1420 multilabel counter (Wallac). Representative data are reported as mean±SD of two independent experiments performed in duplicate. Antibodies against the integrin β7 subunit (Fib504 mAb), and α4β7 complex (DATK32 mAb) were included as positive controls, and added (1:100 dilution of ascites) to cells 20 min prior to the adhesion assay.

[2] = test system: adhesion of TK-1 (α4β7+ α4β1−) cells to MAdCAM-1; assay: Cell adhesion assay: TK-1 cells to MAdCAM-1-Fc coated plates; assay type: cell-based, mouse; conditions: PMA-activated TK-1 cells, peptide up to 50 μM
TK-1 cells = assay: Cell viability of peptide-treated TK-1 cells (trypan blue exclusion); assay type: cell-based, mouse; conditions: data not shown
Protocol: as §1, with “Non-adherent cells were removed by inverse centrifugation of the plates at 70×g for 5 min followed by gentle pipette washing.” left out, “Representative data are reported as mean±SD of two independent experiments performed in duplicate. Antibodies against the integrin β7 subunit (Fib504 mAb), and α4β7 complex (DATK32 mAb) were included as positive controls, and added (1:100 dilution of ascites) to cells 20 min prior to the adhesion assay.” left out

[3] = biological target: T1, soluble VCAM-1-Fc chimera (extracellular portions of human VCAM-1 fused to the Fc domain of human IgG1) (human, UniProt P19320 25-698); assay: cell-based or functional assay
T1 sequence (looked up): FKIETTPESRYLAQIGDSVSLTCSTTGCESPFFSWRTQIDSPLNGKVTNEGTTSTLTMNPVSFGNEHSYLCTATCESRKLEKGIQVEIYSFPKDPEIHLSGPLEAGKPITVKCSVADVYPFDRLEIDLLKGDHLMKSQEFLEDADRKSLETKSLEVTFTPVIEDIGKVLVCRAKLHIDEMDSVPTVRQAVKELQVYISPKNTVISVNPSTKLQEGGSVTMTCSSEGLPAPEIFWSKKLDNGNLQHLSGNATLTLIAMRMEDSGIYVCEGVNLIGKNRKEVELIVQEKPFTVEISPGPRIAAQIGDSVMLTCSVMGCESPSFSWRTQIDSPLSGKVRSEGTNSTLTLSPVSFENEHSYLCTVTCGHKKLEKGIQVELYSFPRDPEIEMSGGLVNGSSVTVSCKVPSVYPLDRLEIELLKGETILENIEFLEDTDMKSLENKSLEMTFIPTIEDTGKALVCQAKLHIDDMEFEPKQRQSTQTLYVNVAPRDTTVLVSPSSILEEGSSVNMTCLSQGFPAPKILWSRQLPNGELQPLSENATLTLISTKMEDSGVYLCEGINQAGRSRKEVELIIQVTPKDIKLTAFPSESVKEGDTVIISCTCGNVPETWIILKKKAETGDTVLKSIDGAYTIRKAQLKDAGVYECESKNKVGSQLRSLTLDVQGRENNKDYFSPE

CC[C@H](C)[C@H](NC(=O)[C@H](Cc1ccc(O)cc1)NC(=O)[C@H](CO)NC(=O)[C@H](Cc1c[nH]c2ccccc12)NC(=O)[C@H](CO)NC(=O)[C@H](CC(=O)O)NC(=O)[C@H](CCCCN)NC(=O)[C@H](CCCCN)NC(=O)[C@H](Cc1c[nH]c2ccccc12)NC(=O)[C@H](CCCCN)NC(=O)[C@H](CCSC)NC(=O)[C@H](CCCNC(=N)N)NC(=O)[C@H](CCCNC(=N)N)NC(=O)[C@H](CC(N)=O)NC(=O)[C@H](CCC(N)=O)NC(=O)[C@H](Cc1ccccc1)NC(=O)[C@H](Cc1c[nH]c2ccccc12)NC(=O)[C@@H](NC(=O)[C@H](CCCCN)NC(=O)[C@@H](NC(=O)[C@H](CCC(N)=O)NC(=O)[C@@H](N)CCCNC(=N)N)[C@@H](C)CC)[C@@H](C)CC)C(=O)N[C@@H](CC(N)=O)C(=O)N[C@@H](CO)C(=O)N[C@@H](CCCCN)C(=O)N[C@@H](CO)C(=O)N[C@@H](CC(N)=O)C(=O)N[C@@H](CC(=O)O)C(=O)N[C@@H](CC(=O)O)C(=O)O [Pen-DSWSYINSKSNDD, DSWSYINSKSNDD]
inhibition of T cell adhesion to VCAM-1 (in words) ([1]; Mn2+-activated TK-1 cells, FIG. 2A): active
maximal inhibition of adhesion to VCAM-1 ([1]; at 30 μM): 72%

DSWS
inhibition of PMA-induced T cell adhesion to MAdCAM-1 (in words) [2]: inactive

DSWSY [r9-DSWSY]
inhibition of cell adhesion to VCAM-1 [1]: 75%

DSWSYINS (not fully specified (N-terminus); also: N-terminal carrier biotinylated penetratin or r9, not given here for this peptide; listed as Homo sapiens) [r9-DSWSYINS]
cells killed (TK-1 cells; 50 μM peptide): 15%
maximal inhibition of adhesion to VCAM-1 ([1]; at 6 μM peptide): ~67%

KSNDD ({biotinylated r9}-KSNDD; listed as Homo sapiens) [r9-KSNDD]
inhibition of cell adhesion to VCAM-1 [1]: 27%

QYKSILQEENRRD [Pen-QYKSILQEENRRD]
inhibition of cell adhesion to VCAM-1 [1]: 14%

SWSY (listed as Homo sapiens)
inhibition of PMA-induced T cell adhesion to MAdCAM-1 (in words) [2]: retained the ability of the parent peptide DSWSY to inhibit T cell adhesion

YINSK ({biotinylated r9}-YINSK; listed as Homo sapiens) [r9-YINSK]
inhibition of cell adhesion to VCAM-1 [1]: 80%

YINSKSNDD (not fully specified (N-terminus); also: N-terminal carrier biotinylated penetratin or r9, not given here for this peptide; listed as Homo sapiens) [r9-YINSKSNDD]
effect on cell viability (in words) (TK-1 cells): no effect
maximal inhibition of adhesion to VCAM-1 ([1]; at 6 μM peptide): ~67%

B1: integrin α4β7 on mouse TK-1 T lymphoma cells (α4β7+ α4β1-) (receptor)
chain 1: YNLDPENALLYQGPSGTLFGYSVVLHSHGSKRWLIVGAPTASWLSNASVVNPGAIYRCGIRKNPNQTCEQLQSGSPSGEPCGKTCLEERDNQWLGVTLSRQPGENGSIVTCGHRWKNIFYMKSDNKLPTGICYVMPSDLRTELSKRMAPCYKDYTRKFGENFASCQAGISSFYTQDLIVMGAPGSSYWTGTVFVYNITTNQYKAFVDRQNQVKFGSYLGYSVGAGHFRSPHTTEVVGGAPQHEQIGKAYIFSIDENELNIVYEMKGKKLGSYFGASVCAVDLNADGFSDLLVGAPMQSTIREEGRVFVYINSGMGAVMVEMERVLVGSDKYAARFGESIANLGDIDNDGFEDIAIGAPQEDDLRGAVYIYNGRVDGISSTYSQRIEGQQISKSLRMFGQSISGQIDADNNGYVDVAVGAFQSDSAVLLRTRPVVIVEASLSHPESVNRTKFDCTENGLPSVCMHLTLCFSYKGKEVPGYIVLFYNVSLDVHRKAESPSRFYFFSNGTSDVITGSIRVSSSGEKCRTHQAFMRKDVRDILTPIHVEATYHLGHHVITKRNTEEFPPLQPILQQKKEKDVIRKMINFARFCAYENCSADLQVSAKVGFLKPYENKTYLAVGSMKTIMLNVSLFNAGDDAYETTLNVQLPTGLYFIKILDLEEKQINCEVTESSGIVKLACSLGYIYVDRLSRIDISFLLDVSSLSRAHEDLSISVHASCENEGELDQVRDNRVTLTIPLRYEVMLTVHGLVNPTSFVYGSSEENEPETCMAEKLNLTFHVINTGISMAPNVSVKIMVPNSFLPQDDKLFNVLDVQTTTGQCHFKHYGRECTFAQQKGIAGTLTDIVKFLSKTDKRLLYCMKADQHCLDFLCNFGKMESGKEASVHIQLEGRPSILEMDETSSLKFEIKATAFPEPHPKVIELNKDENVAHVFLEGLHHQRPKRHFTIIIITISLLLGLIVLLLISCVMWKAGFFKRQYKSILQEENRRDSWSYVNSKSNDD
chain 2: ELDTKITSSGEAAEWEDPDLSLQGSCQPVPSCQKCILSHPSCAWCKQLNFTASGEAEARRCARREELLARGCPAQELEEPRGRQEVLQDKPLSQGDRGEGATQLAPQRIRVTLRPGEPQKFRVRFLRAAGYPVDLYYLMDLSYSMKDDLERVRQLGHALLVRLQEVTHSVRIGFGSFVDKTVLPFVSTVPSKLHHPCPSRLERCQPPFSFHHVLSLTGDAQAFEREVGRQNVSGNLDSPEGGFDAILQAALCQEQIGWRNVSRLLVFTSDDTFHTAGDGKLGGIFMPSDGRCHLDSNGVYTNSAEFDYPSVGQVAQALTAANIQPIFAVTGATLPVYQELRQLIPKSAVGELSEDSSNVVQLIMDAYDSLSSTVTLEHSPLPPGVSISFESHCKGPEKTEGEAGDRGQCNDVRVNQTVDFWVTLQATHCLPEAHVLRLWALGFSEELTVELHTVCDCNCGDAQPHAPYCSDGQGDLQCGICSCAPGRLGQLCECSEADLSSPDLESGCRAPNGTGPLCSGKGRCQCGRCSCSGQSSGRLCECDDASCERHEGILCGGFGHCQCGVCHCHANHTGRACECSKSVDSCVSPEGGLCSGHGYCKCNRCQCLDGYYGALCDQCLGCKSPCEQYRDCAECGAFGTGPLAANCSVVCADVNVTLTLAPNLDDGWCKERTIDNQLFFFLVEHAASGIVLRVRPQEKGVDHTRAIILGCTGGIVAVGLGLVLAYRLSVEIYDRREYRRFEKEQQQLNWKQDNNPLYKSAITTTVNPRFQGTNGRSPSLSLTREAD
IC50 of the cell-permeable peptide Pen-… for inhibition of adhesion of Mn++-activated TK-1 cells to VCAM-1 [3]: 20 µM

Source: patent US20080153756A1, “Novel Peptides and Methods for the Treatment of Inflammatory Disorders” (Auckland Uniservices Limited, priority 2005, published 2008)
